Experimental data as given in PMC12754617, “Ruthenium-enhanced curcumin derivatives target tumor growth and cancer-related inflammation in head and neck cancer models” (Frontiers in Oncology, 2025).
Read-outs that look alike come from different tables or passages of the source.

Columns and labels:
HGF [1] = test: Wound healing assay; assay type: cell-based, human; conditions: IC25 concentration, area closed
Procedure: (§1) The wound healing activity of complexes 3 and 4 was evaluated using the ibidi Culture-Insert 2 Well in a μ-dish. Cells were plated by applying 70 μL of cell suspension at a density of 50,000 cells into both wells of the Culture-Insert 2 Well and grown over the weekend. Once confluency was achieved, sterile tweezers were used to detach the Culture-Insert 2 Well from the μ-dish. The cell layer was then gently washed with PBS. Subsequently, the cell layer was treated with medium containing complex 3 or 4 at the IC25 concentration, and wound closure was observed and photographed using an inverted light microscope (0–55 h of incubation). Experiments were performed in four independent replicates.
(§2) An in vitro wound healing assay was performed to determine the effect of complex 3 or 4 on cell migration. The area of the wound bordered by a monolayer of cells was measured using ImageJ software. Wound closure was monitored from 0 to 55 h. […] Microscope images after 24 h for all cell lines, as well as 55 h, can be seen in Supplementary Figure S7. […] The stained wound healing area after 55 h is shown in Supplementary Figure S10.

TR146 [2] = test: Wound healing assay; assay type: cell-based, human; conditions: IC25 concentration, area closed
Procedure: as §1, §2

KB [3] = test: Wound healing assay; assay type: cell-based, human; conditions: IC25 concentration, area closed
Procedure: as §1, §2

SCC-9 = test: Wound healing assay; assay type: cell-based, human; conditions: IC25 concentration, area closed
Procedure: as §1, §2

CAL 27 [4] = test: Wound healing assay; assay type: cell-based, human; conditions: IC25 concentration, area closed
Procedure: as §1, §2

FaDu [5] = test: Wound healing assay; assay type: cell-based, human; conditions: IC25 concentration, area closed
Procedure: as §1, §2

Hep-2 = test: Wound healing assay; assay type: cell-based, human; conditions: IC25 concentration, area closed
Procedure: as §1, §2

Detroit 562 = test: Wound healing assay; assay type: cell-based, human; conditions: IC25 concentration, area closed
Procedure: as §1, §2

HGF [6] = test: MTT viability assay; assay type: cell-based, human
Procedure: (§3) A colorimetric 3-(4,5-dimethylthiazolyl)-2,5-diphenyltetrazolium bromide (MTT) cell metabolic activity assay was used to assess the cytotoxicity of complexes 3 and 4. The cells (described above) were cultured under standard conditions. Cells were seeded in 96-well plates at a density of 10,000 cells per well (200 μL) and allowed to grow for 24 h. The medium was then replaced with medium containing complex 3 or 4 at a concentration ranging from 0 to 200 μM, and the cells were incubated for an additional 24, 48, and 72 h. Subsequently, the medium was replaced with MTT solution, consisting of yellow tetrazolium dye 3-(4,5-dimethylthiazol-2-yl)-2,5-diphenyltetrazolium bromide (Sigma-Aldrich, Merck, Germany), and incubated for 2 h at 37°C. The dye was then removed, and the resulting purple formazan formed in viable cells was dissolved in DMSO, followed by shaking for 30 s. Absorbance was measured at 570 nm using an […] 200 PRO microplate reader (TECAN, Männedorf, Switzerland). All experiments were performed in quadruplicate and repeated three times.
(§4) The cell inhibitory concentration (IC) was calculated using the equation IC = (Acomplex3/complex4 well/mean Acontrol wells) × 100%. The half-maximal inhibitory concentration (IC50) was determined from dose–response curves using GraphPad Prism 10 (GraphPad Software Inc., La Jolla, CA, USA). The selectivity index toward cancer cells was calculated as a ratio of the average IC50 value for HGF to the IC50 value for the corresponding cancer cell line.

TR146 [7] = test: MTT viability assay; assay type: cell-based, human
Procedure: as §3, §4

KB [8] = test: MTT viability assay; assay type: cell-based, human
Procedure: as §3, §4

CAL 27 [9] = test: MTT viability assay; assay type: cell-based, human
Procedure: as §3, §4

FaDu [10] = test: MTT viability assay; assay type: cell-based, human
Procedure: as §3, §4

IL-8 = target: T1, IL-8 (Homo sapiens, UniProt P10145); test: Sandwich ELISA assay IL-8; assay type: binding; conditions: for Decrease of IL-8 concentration: 500 pg/mL IL-8
T1 construct: purchased PeproTech, Thermo Fisher Scientific
T1 sequence (P10145 21-99): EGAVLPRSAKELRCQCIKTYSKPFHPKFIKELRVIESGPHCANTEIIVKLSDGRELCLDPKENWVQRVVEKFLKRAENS
Procedure: (§5) Human ELISA kits for IL-6, IL-6R, and IL-8 (Sigma-Aldrich, Merck, Germany) were used to quantify cytokine levels after treatment with complex 3 or 4. Briefly, 96-well plates precoated with specific antibodies were used to capture IL-6, IL-6R, and IL-8 from samples. […] Each sample was supplemented with 500 pg/mL of IL-6/IL-6R/IL-8. Positive control wells contained only the IL-6/IL-6R/IL-8 standard (PeproTech, Thermo Fisher Scientific, Waltham, Massachusetts, USA). […] After incubation, wells were washed, and biotinylated antihuman antibodies were added, followed by washing and addition of HRP-conjugated streptavidin. Finally, the TMB substrate was added to develop a color proportional to the cytokine concentration, and the reaction was stopped with the stop solution. Absorbance was measured at 450 nm using an […] 200 PRO microplate reader (TECAN, Switzerland).

IL-6R = target: T2, IL-6R (Homo sapiens, UniProt P08887); test: ELISA assay IL-6R; assay type: binding; conditions: 500 pg/mL IL-6R
T2 construct: purchased PeproTech, Thermo Fisher Scientific
Procedure: as §5

[11] = TR146, 24 h, read-out: IC50 24h
[12] = TR146, 48 h, read-out: IC50 48h
[13] = TR146, 72 h, read-out: IC50 72h
[14] = CAL 27, 24 h, read-out: IC50 24h
[15] = CAL 27, 48 h, read-out: IC50 48h
[16] = CAL 27, 72 h, read-out: IC50 72h

T2 sequence (P08887 20-468): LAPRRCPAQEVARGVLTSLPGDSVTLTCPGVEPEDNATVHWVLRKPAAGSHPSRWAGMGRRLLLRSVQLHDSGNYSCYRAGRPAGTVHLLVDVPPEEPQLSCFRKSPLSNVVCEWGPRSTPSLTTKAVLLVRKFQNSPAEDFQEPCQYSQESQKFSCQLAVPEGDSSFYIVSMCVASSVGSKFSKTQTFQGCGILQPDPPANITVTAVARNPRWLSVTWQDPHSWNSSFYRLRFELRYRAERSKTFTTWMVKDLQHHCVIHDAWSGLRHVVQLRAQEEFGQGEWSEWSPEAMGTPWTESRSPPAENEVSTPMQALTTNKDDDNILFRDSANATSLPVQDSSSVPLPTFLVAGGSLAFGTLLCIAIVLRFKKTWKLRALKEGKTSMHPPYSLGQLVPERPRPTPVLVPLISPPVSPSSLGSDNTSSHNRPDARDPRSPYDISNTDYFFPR

Structure (SMILES): Cc1ccc(C(C)C)cc1.Cc1ccc(C(C)C)cc1.O=C1C(=Cc2ccnc3ccccc23)COCC1=Cc1ccnc2ccccc12.[Cl][Ru][Cl].[Cl][Ru][Cl] [Complex 3]
- Wound area (%) (HGF [1]; 24 h): 8 ± 3%
- Wound area (%) (HGF [1]; 48 h): 13 ± 5%
- Wound area (%) (HGF [1]; 55 h): 71 ± 2%
- Wound area (%) (TR146 [2]; TR146, 24 h): 3 ± 1%
- Wound area (%) (TR146 [2]; TR146, 48 h): 4 ± 1%
- Wound area (%) (TR146 [2]; TR146, 55 h): less than 10%
- Wound area (%) (TR146 [2]; TR146, 55 h, listed as C3): 5 ± 1%
- Wound area (%) (KB [3]; 24 h): 7 ± 1%
- Wound area (%) (KB [3]; 48 h): 13 ± 1%
- Wound area (%) (KB [3]; 55 h): less than 20%
- Wound area (%) (KB [3]; 55 h, listed as C3): 17 ± 2%
- Wound area (%) (SCC-9; SCC-9, 24 h): 5 ± 2%
- Wound area (%) (SCC-9; SCC-9, 48 h): 6 ± 2%
- Wound area (%) (SCC-9; SCC-9, 55 h): less than 10%
- Wound area (%) (SCC-9; SCC-9, 55 h, listed as C3): 7 ± 2%
- Wound area (%) (CAL 27 [4]; CAL 27, 24 h): 10 ± 2%
- Wound area (%) (CAL 27 [4]; CAL 27, 48 h): 15 ± 3%
- Wound area (%) (CAL 27 [4]; CAL 27, 55 h): less than 20%
- Wound area (%) (CAL 27 [4]; CAL 27, 55 h, listed as C3): 16 ± 3%
- Wound area (%) (FaDu [5]; 24 h): 7 ± 1%
- Wound area (%) (FaDu [5]; 48 h): 9 ± 1%
- Wound area (%) (FaDu [5]; 55 h): less than 20%
- Wound area (%) (FaDu [5]; 55 h, listed as C3): 12 ± 1%
- Wound area (%) (Hep-2; Hep-2, 24 h): 3 ± 1%
- Wound area (%) (Hep-2; Hep-2, 48 h): 5 ± 1%
- Wound area (%) (Hep-2; Hep-2, 55 h): less than 10%
- Wound area (%) (Hep-2; Hep-2, 55 h, listed as C3): 7 ± 1%
- Wound area (%) (Detroit 562; Detroit 562, 24 h): 8 ± 2%
- Wound area (%) (Detroit 562; Detroit 562, 48 h): 9 ± 3%
- Wound area (%) (Detroit 562; Detroit 562, 55 h): less than 20%
- Wound area (%) (Detroit 562; Detroit 562, 55 h, listed as C3): 10 ± 2%
- IC50 (HGF [6]; 24 h, read-out: IC50 24h): 20.8 ± 3.95 µM
- IC50 (HGF [6]; 48 h, read-out: IC50 48h): 13 ± 0.27 µM
- IC50 (HGF [6]; 72 h, read-out: IC50 72h): 9.15 ± 1.2 µM
- IC50 (TR146 [7]; [11]): 19.7 ± 4.82 µM
- IC50 (TR146 [7]; [12]): 11.3 ± 0.78 µM
- IC50 (TR146 [7]; [13]): 4.9 ± 0.42 µM
- IC50 (KB [8]; 24 h, read-out: IC50 24h): 14.3 µM
- IC50 (KB [8]; 48 h, read-out: IC50 48h): 10.5 ± 0.43 µM
- IC50 (KB [8]; 72 h, read-out: IC50 72h): 3.7 ± 0.42 µM
- IC50 (CAL 27 [9]; [14]): 22.5 ± 1.08 µM
- IC50 (CAL 27 [9]; [15]): 12.9 ± 2.56 µM
- IC50 (CAL 27 [9]; [16]): 6.35 ± 1.75 µM
- IC50 (FaDu [10]; 24 h, read-out: IC50 24h): 8.65 µM
- IC50 (FaDu [10]; 48 h, read-out: IC50 48h): 5.75 ± 0.06 µM
- IC50 (FaDu [10]; 72 h, read-out: IC50 72h): 3.85 ± 0.24 µM
- IL-8 reduction relative to curcumin (IL-8; 1 µM versus curcumin at 5 µM): roughly 1.5 fold
- Decrease of IL-8 concentration (IL-8; 8 µM): approximately 40%
- Decrease in IL-6R concentration (IL-6R; 8 μM): about 15%

Structure (SMILES): Cc1ccc(C(C)C)cc1.Cc1ccc(C(C)C)cc1.O=C1C(=Cc2cccnc2)CCC1=Cc1cccnc1.[Cl][Ru][Cl].[Cl][Ru][Cl] [Complex 4]
- Wound area (%) (HGF [1]; 24 h): 13 ± 3%
- Wound area (%) (HGF [1]; 48 h): 47 ± 11%
- Wound area (%) (HGF [1]; 55 h): 91 ± 1%
- Wound area (%) (TR146 [2]; TR146, 24 h): 3 ± 1%
- Wound area (%) (TR146 [2]; TR146, 48 h): 5 ± 1%
- Wound area (%) (TR146 [2]; TR146, 55 h): less than 15%
- Wound area (%) (TR146 [2]; TR146, 55 h, listed as C4): 7 ± 1%
- Wound area (%) (KB [3]; 24 h): 16 ± 4%
- Wound area (%) (KB [3]; 48 h): 33 ± 4%
- Wound area (%) (KB [3]; 55 h): less than 50%
- Wound area (%) (KB [3]; 55 h, listed as C4): 44 ± 2%
- Wound area (%) (SCC-9; SCC-9, 24 h): 17 ± 12%
- Wound area (%) (SCC-9; SCC-9, 48 h): 37 ± 8%
- Wound area (%) (SCC-9; SCC-9, 55 h): 55 ± 13%
- Wound area (%) (CAL 27 [4]; CAL 27, 24 h): 7 ± 4%
- Wound area (%) (CAL 27 [4]; CAL 27, 48 h): 11 ± 3%
- Wound area (%) (CAL 27 [4]; CAL 27, 55 h): less than 15%
- Wound area (%) (CAL 27 [4]; CAL 27, 55 h, listed as C4): 12 ± 3%
- Wound area (%) (FaDu [5]; 24 h): 24 ± 6%
- Wound area (%) (FaDu [5]; 48 h): 43 ± 10%
- Wound area (%) (FaDu [5]; 55 h): 61 ± 6%
- Wound area (%) (Hep-2; Hep-2, 24 h): 9 ± 2%
- Wound area (%) (Hep-2; Hep-2, 48 h): 23 ± 3%
- Wound area (%) (Hep-2; Hep-2, 55 h): less than 50%
- Wound area (%) (Hep-2; Hep-2, 55 h, listed as C4): 47 ± 2%
- Wound area (%) (Detroit 562; Detroit 562, 24 h): 13 ± 7%
- Wound area (%) (Detroit 562; Detroit 562, 48 h): 38 ± 11%
- Wound area (%) (Detroit 562; Detroit 562, 55 h): 76 ± 2%
- IC50 (HGF [6]; 24 h, read-out: IC50 24h): 28.2 ± 2.78 µM
- IC50 (HGF [6]; 48 h, read-out: IC50 48h): 9 ± 1.68 µM
- IC50 (HGF [6]; 72 h, read-out: IC50 72h): 13.9 ± 0.59 µM
- IC50 (TR146 [7]; [11]): 59.3 ± 3.24 µM
- IC50 (TR146 [7]; [12]): 16.8 ± 0.81 µM
- IC50 (TR146 [7]; [13]): 18.2 ± 1.07 µM
- IC50 (KB [8]; 24 h, read-out: IC50 24h): 20.8 ± 0.77 µM
- IC50 (KB [8]; 48 h, read-out: IC50 48h): 25.2 ± 0.33 µM
- IC50 (KB [8]; 72 h, read-out: IC50 72h): 30.3 ± 0.65 µM
- IC50 (CAL 27 [9]; [14]): 27.1 ± 0.79 µM
- IC50 (CAL 27 [9]; [15]): 16.1 ± 0.57 µM
- IC50 (CAL 27 [9]; [16]): 33.3 ± 0.65 µM
- IC50 (FaDu [10]; 24 h, read-out: IC50 24h): 25.9 ± 0.25 µM
- IC50 (FaDu [10]; 48 h, read-out: IC50 48h): 17.1 ± 2.24 µM
- IC50 (FaDu [10]; 72 h, read-out: IC50 72h): 21.6 ± 0.73 µM
- Decrease of IL-8 concentration (IL-8; 15 µM): approximately 30%
- Decrease in IL-6R concentration (IL-6R; 15 μM): about 15%
